The values below are quoted from earlier work in patent publication US6703044B1, “Venlafaxine formulations” (priority 2002, dated 2004).

Structures are written as SMILES. Where a name gives a salt, the structure may show the parent alone.

For this data set the following is noted: plural daily dosing regimen.

For the compound `COc1ccc(C(CN(C)C)C2(O)CCCCC2)cc1` (centres unmarked) [venlafaxine hydrochloride, 1-[(2-dimethylamino)-1-(4-methoxyphenyl)ethyl] cyclohexanol], the patients experiencing nausea result is on record as “about forty five” and the “patients in whom vomiting occurs” value is recorded as “about seventeen”.
